Experimental data: patent US8450315B2, “Phosphoinositide 3-kinase inhibitor compounds and methods of use” (Genentech, Inc., priority 2006, dated 2013)

What was measured:
Format in all cases: biochemical
[1] = target: human PI3K isoform beta (p110 beta) (Homo sapiens, UniProt P42338); experiment: p110 isoform selectivity scintillation proximity assay (SPA), beta isoform; conditions: fold potency over beta relative to alpha, calculated from IC50 values (SPA)
Procedure: (§1) Binding of Formula Ia and Ib compounds from Tables 1a and 1b to purified preparations of p110 isoforms alpha, beta, delta, and gamma was measured by a Scintillation Proximity Assay (SPA) to determine binding activity (IC50 μMol) and selectivity of binding of beta, delta, and gamma isoforms relative to alpha (Example 365). These values are expressed in Table 2.
(§2) The ability of Formula Ia and Ib compounds from Tables 1a and 1b to inhibit the lipid kinase activity of purified preparations of human PI3K isoforms alpha, beta, delta, and gamma was determined by a radiometric scintillation proximity assay (SPA, GE Healthcare, Amersham Biosciences). Concentration dependent inhibition at 50% (IC50 μMol) was determined for all four isoforms […] and fold potency over beta, delta, and gamma relative to alpha was calculated for a selection of compounds in Table 2. Each compound has a p110 alpha IC50<1 μMol.

[2] = target: human PI3K isoform delta (p110 delta) (Homo sapiens, UniProt O00329); experiment: p110 isoform selectivity scintillation proximity assay (SPA), delta isoform; conditions: fold potency over delta relative to alpha, calculated from IC50 values (SPA)
Sequence of human PI3K isoform delta (p110 delta) (O00329 whole entry, canonical isoform): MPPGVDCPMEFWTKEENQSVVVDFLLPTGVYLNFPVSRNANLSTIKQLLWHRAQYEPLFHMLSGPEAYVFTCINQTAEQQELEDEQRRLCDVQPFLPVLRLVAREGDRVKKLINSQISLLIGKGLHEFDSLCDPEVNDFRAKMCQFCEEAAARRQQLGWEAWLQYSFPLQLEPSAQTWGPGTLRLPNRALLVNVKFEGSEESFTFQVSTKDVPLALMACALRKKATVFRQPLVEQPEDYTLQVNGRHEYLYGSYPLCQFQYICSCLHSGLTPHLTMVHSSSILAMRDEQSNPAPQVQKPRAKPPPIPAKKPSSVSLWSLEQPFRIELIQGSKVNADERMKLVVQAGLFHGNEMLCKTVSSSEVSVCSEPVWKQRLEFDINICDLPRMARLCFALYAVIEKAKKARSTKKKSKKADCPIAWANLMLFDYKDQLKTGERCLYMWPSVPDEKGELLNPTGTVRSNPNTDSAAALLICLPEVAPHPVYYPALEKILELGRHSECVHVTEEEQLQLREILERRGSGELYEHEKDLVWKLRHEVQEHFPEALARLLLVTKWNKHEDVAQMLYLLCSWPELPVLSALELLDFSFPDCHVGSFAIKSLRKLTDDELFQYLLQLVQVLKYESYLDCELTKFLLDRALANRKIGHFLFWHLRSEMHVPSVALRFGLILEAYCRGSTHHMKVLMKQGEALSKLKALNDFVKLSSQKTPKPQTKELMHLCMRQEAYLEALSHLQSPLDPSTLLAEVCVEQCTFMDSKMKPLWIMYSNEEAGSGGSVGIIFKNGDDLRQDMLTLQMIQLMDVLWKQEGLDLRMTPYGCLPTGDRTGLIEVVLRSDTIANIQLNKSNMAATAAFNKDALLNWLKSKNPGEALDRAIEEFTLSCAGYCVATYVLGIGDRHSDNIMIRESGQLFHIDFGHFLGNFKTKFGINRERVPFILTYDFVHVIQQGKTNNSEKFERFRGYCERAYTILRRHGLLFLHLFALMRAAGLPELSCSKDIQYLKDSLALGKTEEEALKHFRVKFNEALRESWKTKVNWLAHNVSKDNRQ
Sequence of human PI3K isoform delta (p110 delta) (P27986 whole entry partner, canonical isoform): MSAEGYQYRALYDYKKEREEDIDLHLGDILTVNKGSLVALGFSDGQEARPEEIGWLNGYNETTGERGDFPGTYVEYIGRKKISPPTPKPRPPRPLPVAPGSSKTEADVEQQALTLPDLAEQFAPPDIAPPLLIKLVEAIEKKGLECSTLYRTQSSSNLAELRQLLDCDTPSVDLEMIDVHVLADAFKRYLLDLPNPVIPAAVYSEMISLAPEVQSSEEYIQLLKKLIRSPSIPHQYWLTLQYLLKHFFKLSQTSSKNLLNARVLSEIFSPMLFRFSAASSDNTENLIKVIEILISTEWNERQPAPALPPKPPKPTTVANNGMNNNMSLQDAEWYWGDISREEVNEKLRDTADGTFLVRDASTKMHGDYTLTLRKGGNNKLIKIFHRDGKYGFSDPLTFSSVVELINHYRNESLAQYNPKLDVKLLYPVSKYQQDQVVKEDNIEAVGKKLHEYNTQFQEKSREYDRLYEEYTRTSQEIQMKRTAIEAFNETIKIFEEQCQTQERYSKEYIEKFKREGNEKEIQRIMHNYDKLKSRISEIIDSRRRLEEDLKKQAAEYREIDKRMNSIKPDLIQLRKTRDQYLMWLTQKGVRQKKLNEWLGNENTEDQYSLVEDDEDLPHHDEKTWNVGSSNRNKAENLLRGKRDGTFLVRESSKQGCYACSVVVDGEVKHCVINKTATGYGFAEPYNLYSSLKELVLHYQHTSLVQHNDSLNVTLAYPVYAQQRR
Procedure: as §1, §2

[3] = target: human PI3K isoform gamma (p110 gamma) (Homo sapiens, UniProt P48736); experiment: p110 isoform selectivity scintillation proximity assay (SPA), gamma isoform; conditions: fold potency over gamma relative to alpha, calculated from IC50 values (SPA)
Sequence of human PI3K isoform gamma (p110 gamma) (P48736 whole entry, canonical isoform): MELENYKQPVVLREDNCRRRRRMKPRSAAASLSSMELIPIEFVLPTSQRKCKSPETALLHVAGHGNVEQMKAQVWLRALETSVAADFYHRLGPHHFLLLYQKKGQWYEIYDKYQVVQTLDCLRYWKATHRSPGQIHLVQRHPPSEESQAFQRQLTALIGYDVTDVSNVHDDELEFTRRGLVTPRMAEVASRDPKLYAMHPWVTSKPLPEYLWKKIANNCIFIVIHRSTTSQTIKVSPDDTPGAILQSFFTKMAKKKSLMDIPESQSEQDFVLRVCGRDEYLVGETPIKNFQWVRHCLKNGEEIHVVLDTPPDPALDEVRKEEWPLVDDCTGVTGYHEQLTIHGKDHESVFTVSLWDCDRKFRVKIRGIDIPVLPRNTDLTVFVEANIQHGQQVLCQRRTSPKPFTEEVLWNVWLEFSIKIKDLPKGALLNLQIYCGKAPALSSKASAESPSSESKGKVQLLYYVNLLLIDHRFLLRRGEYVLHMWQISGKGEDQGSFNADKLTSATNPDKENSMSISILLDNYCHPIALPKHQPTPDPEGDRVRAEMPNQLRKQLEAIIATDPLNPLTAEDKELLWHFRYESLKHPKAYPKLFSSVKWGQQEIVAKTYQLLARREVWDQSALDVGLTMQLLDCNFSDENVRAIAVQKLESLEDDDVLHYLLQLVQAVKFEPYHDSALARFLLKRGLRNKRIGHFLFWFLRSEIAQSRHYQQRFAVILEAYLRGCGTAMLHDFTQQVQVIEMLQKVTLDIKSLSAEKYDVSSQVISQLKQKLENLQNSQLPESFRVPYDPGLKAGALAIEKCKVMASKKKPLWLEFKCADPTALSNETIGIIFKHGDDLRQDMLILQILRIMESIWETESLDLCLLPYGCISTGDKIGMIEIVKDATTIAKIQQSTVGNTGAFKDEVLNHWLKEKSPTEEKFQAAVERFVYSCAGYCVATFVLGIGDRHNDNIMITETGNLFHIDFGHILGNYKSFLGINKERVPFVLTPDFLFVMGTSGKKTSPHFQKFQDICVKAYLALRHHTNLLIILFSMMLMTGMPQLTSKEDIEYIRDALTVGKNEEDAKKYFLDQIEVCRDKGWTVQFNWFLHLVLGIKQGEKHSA
Procedure: as §1, §2

Sequence of human PI3K isoform beta (p110 beta) (P42338 whole entry, canonical isoform): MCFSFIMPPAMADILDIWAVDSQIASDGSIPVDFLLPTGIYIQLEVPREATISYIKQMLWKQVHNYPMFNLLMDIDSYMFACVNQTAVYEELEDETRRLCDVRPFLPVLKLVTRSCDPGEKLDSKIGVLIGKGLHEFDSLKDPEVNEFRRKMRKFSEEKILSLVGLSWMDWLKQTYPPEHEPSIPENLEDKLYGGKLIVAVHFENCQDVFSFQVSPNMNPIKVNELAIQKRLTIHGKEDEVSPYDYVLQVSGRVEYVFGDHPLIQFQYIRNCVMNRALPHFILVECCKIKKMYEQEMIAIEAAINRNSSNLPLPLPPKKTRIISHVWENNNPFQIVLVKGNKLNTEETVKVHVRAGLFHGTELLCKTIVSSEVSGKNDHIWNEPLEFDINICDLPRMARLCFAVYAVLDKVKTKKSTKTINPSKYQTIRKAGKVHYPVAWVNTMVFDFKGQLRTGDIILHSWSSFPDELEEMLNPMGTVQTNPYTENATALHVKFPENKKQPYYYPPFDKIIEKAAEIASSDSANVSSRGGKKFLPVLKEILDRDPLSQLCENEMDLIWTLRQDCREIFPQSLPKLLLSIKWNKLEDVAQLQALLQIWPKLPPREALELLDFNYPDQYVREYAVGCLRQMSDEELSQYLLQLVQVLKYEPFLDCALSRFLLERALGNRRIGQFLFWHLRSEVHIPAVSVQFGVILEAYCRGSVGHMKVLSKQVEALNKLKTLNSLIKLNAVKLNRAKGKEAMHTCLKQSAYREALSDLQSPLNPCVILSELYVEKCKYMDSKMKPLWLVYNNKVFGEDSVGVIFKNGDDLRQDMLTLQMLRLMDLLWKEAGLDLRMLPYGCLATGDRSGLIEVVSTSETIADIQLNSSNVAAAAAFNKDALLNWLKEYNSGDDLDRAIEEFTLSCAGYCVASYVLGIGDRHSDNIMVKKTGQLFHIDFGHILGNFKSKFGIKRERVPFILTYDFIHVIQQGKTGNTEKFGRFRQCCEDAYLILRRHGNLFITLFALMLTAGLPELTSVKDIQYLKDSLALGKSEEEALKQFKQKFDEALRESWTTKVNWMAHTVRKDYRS
Sequence of human PI3K isoform beta (p110 beta) (P27986 whole entry partner, canonical isoform): as the sequence (P27986 whole entry partner, canonical isoform) above

CNC(=O)c1cccc(-c2cc3nc(-c4cccc5[nH]ncc45)nc(N4CCOCC4)c3s2)c1 [Compound 101, 3-(2-(1H-indazol-4-yl)-4-morpholinothieno[3,2-d]pyrimidin-6-yl)-N-methylbenzamide]
alpha/beta [1]: >10 | alpha/delta [2]: <10 | alpha/gamma [3]: >10

OC1(c2cc3nc(-c4cccc5[nH]ncc45)nc(N4CCOCC4)c3s2)CCC1 [Compound 133, 1-(2-(1H-indazol-4-yl)-4-morpholinothieno[3,2-d]pyrimidin-6-yl)cyclobutanol]
alpha/beta [1]: <10 | alpha/delta [2]: <10 | alpha/gamma [3]: >10

NCC(=O)Nc1cccc(-c2cc3nc(-c4cccc5[nH]ncc45)nc(N4CCOCC4)c3s2)c1 [Compound 137, N-(3-(2-(1H-indazol-4-yl)-4-morpholinothieno[3,2-d]pyrimidin-6-yl)phenyl)-2-aminoacetamide]
alpha/beta [1]: >10 | alpha/delta [2]: <10 | alpha/gamma [3]: <10

CCNC(=O)c1cc2nc(-c3cccc4[nH]ncc34)nc(N3CCOCC3)c2s1 [Compound 170, N-ethyl-2-(1H-indazol-4-yl)-4-morpholinothieno[3,2-d]pyrimidine-6-carboxamide]
alpha/beta [1]: <10 | alpha/delta [2]: <10 | alpha/gamma [3]: <10

O=C(NOCC1CC1)c1cc2nc(-c3cccc4[nH]ncc34)nc(N3CCOCC3)c2s1 [Compound 202, N-(cyclopropylmethoxy)-2-(1H-indazol-4-yl)-4-morpholinothieno[3,2-d]pyrimidine-6-carboxamide]
alpha/beta [1]: <10 | alpha/delta [2]: <10 | alpha/gamma [3]: >10

c1cc(-c2nc(N3CCOCC3)c3sc(-c4cn[nH]c4)cc3n2)c2cn[nH]c2c1 [Compound 203, 2-(1H-indazol-4-yl)-4-morpholino-6-(1H-pyrazol-4-yl)thieno[3,2-d]pyrimidine]
alpha/beta [1]: <10 | alpha/delta [2]: <10 | alpha/gamma [3]: >10

C[C@H](O)CNCc1cc2nc(-c3cccc4[nH]ncc34)nc(N3CCOCC3)c2s1 [Compound 205, (S)-1-((2-(1H-indazol-4-yl)-4-morpholinothieno[3,2-d]pyrimidin-6-yl)methylamino)propan-2-ol]
alpha/beta [1]: <10 | alpha/delta [2]: <10 | alpha/gamma [3]: >10

O=S(=O)(Nc1cccc(O)c1)c1cc2nc(-c3cccc4[nH]ncc34)nc(N3CCOCC3)c2s1 [Compound 208, 6-(3-hydroxyphenylaminosulfonyl)-2-(1H-indazol-4-yl)-4-morpholinothieno[3,2-d]pyrimidine]
alpha/beta [1]: >10 | alpha/delta [2]: <10 | alpha/gamma [3]: >10

O=S(=O)(NCCN1CCCCC1)c1cc2nc(-c3cccc4[nH]ncc34)nc(N3CCOCC3)c2s1 [Compound 218, 6-(2-piperidinylethylaminosulfonyl)-2-(1H-indazol-4-yl)-4-morpholinothieno[3,2-d]pyrimidine]
alpha/beta [1]: >10 | alpha/delta [2]: <10 | alpha/gamma [3]: >10

OCCNc1cc2nc(-c3cccc4[nH]ncc34)nc(N3CCOCC3)c2s1 [Compound 226, 2-(2-(1H-indazol-4-yl)-4-morpholinothieno[3,2-d]pyrimidin-6-ylamino)ethanol]
alpha/beta [1]: <10 | alpha/delta [2]: <10 | alpha/gamma [3]: >10

c1ccc(-c2cc3nc(-c4cccc5[nH]ncc45)nc(N4CCOCC4)c3o2)cc1 [Compound 233, 2-(1H-indazol-4-yl)-4-morpholino-6-phenylfuro[3,2-d]pyrimidine]
alpha/beta [1]: >10 | alpha/delta [2]: <10 | alpha/gamma [3]: <10

CC(C)(O)c1cc2nc(-c3cccc4[nH]ncc34)nc(N3CCOCC3)c2s1 [Compound 235, 2-(2-(1H-indazol-4-yl)-4-morpholinothieno[3,2-d]pyrimidin-6-yl)propan-2-ol]
alpha/beta [1]: >10 | alpha/delta [2]: <10 | alpha/gamma [3]: >10

OCc1cccc(-c2cc3nc(-c4cccc5[nH]ncc45)nc(N4CCOCC4)c3s2)c1 [Compound 237, (3-(2-(1H-indazol-4-yl)-4-morpholinothieno[3,2-d]pyrimidin-6-yl)phenyl)methanol]
alpha/beta [1]: >10 | alpha/delta [2]: <10 | alpha/gamma [3]: >10

CC(=O)Nc1cccc(-c2cc3nc(-c4cccc5[nH]ncc45)nc(N4CCOCC4)c3s2)c1 [Compound 238, N-(3-(2-(1H-indazol-4-yl)-4-morpholinothieno[3,2-d]pyrimidin-6-yl)phenyl)acetamide]
alpha/beta [1]: >10 | alpha/delta [2]: <10 | alpha/gamma [3]: >10

O=C(NCCN1CCCCC1)c1cc2nc(-c3cccc4[nH]ncc34)nc(N3CCOCC3)c2s1 [Compound 257, 2-(1H-indazol-4-yl)-4-morpholino-N-(2-(piperidin-1-yl)ethyl)thieno[3,2-d]pyrimidine-6-carboxamide]
alpha/beta [1]: <10 | alpha/delta [2]: <10 | alpha/gamma [3]: >10

CN(C)C(=O)c1cc2nc(-c3cccc4[nH]ncc34)nc(N3CCOCC3)c2s1 [Compound 263, 2-(1H-indazol-4-yl)-N,N-dimethyl-4-morpholinothieno[3,2-d]pyrimidine-6-carboxamide]
alpha/beta [1]: <10 | alpha/delta [2]: <10 | alpha/gamma [3]: >10

CS(=O)(=O)c1cccc(-c2cc3nc(-c4cccc5[nH]ncc45)nc(N4CCOCC4)c3s2)c1 [Compound 265, 2-(1H-indazol-4-yl)-6-(3-(methylsulfonyl)phenyl)-4-morpholinothieno[3,2-d]pyrimidine]
alpha/beta [1]: >10 | alpha/delta [2]: <10 | alpha/gamma [3]: >10

CN(C)Cc1cc2nc(-c3cccc4[nH]ncc34)nc(N3CCOCC3)c2s1 [Compound 304, (2-(1H-indazol-4-yl)-4-morpholinothieno[3,2-d]pyrimidin-6-yl)-N,N-dimethylmethanamine]
alpha/beta [1]: 10 | alpha/delta [2]: <10 | alpha/gamma [3]: >10

O=C(NCc1cc2nc(-c3cccc4[nH]ncc34)nc(N3CCOCC3)c2s1)N1CCOCC1 [Compound 305, N-((2-(1H-indazol-4-yl)-4-morpholinothieno[3,2-d]pyrimidin-6-yl)methyl)morpholine-4-carboxamide]
alpha/beta [1]: <10 | alpha/delta [2]: <10 | alpha/gamma [3]: >10

c1cc(-c2nc(N3CCOCC3)c3sc(Cn4ccnc4)cc3n2)c2cn[nH]c2c1 [Compound 312, 6-((1H-imidazol-1-yl)methyl)-2-(1H-indazol-4-yl)-4-morpholinothieno[3,2-d]pyrimidine]
alpha/beta [1]: <10 | alpha/delta [2]: <10 | alpha/gamma [3]: >10

COC/C=C/c1cc2nc(-c3cccc4[nH]ncc34)nc(N3CCOCC3)c2s1 [Compound 334]
alpha/beta [1]: >10 | alpha/delta [2]: <10 | alpha/gamma [3]: >10

C[C@H](O)CNC(=O)c1cccc(-c2cc3nc(-c4cccc5[nH]ncc45)nc(N4CCOCC4)c3s2)c1 [Compound 336, 3-(2-(1H-indazol-4-yl)-4-morpholinothieno[3,2-d]pyrimidin-6-yl)-N-((S)-2-hydroxypropyl)benzamide]
alpha/beta [1]: >10 | alpha/delta [2]: <10 | alpha/gamma [3]: >10

O=C(O)c1cccc(-c2cc3nc(-c4cccc5[nH]ncc45)nc(N4CCOCC4)c3s2)c1 [Compound 338, 3-(2-(1H-indazol-4-yl)-4-morpholinothieno[3,2-d]pyrimidin-6-yl)benzoic acid]
alpha/beta [1]: >10 | alpha/delta [2]: <10 | alpha/gamma [3]: >10

CS(=O)(=O)N1CCC(C(O)c2cc3nc(-c4cccc5[nH]ncc45)nc(N4CCOCC4)c3s2)CC1 (stereo not drawn) [Compound 353, (2-(1H-indazol-4-yl)-4-morpholinothieno[3,2-d]pyrimidin-6-yl)(4-N-methylsulfonylpiperidin-4-yl)methanol]
alpha/beta [1]: <10 | alpha/delta [2]: <10 | alpha/gamma [3]: >10

Cc1c(-c2cccc(S(C)(=O)=O)c2)sc2c(N3CCOCC3)nc(-c3cccc4[nH]ncc34)nc12 [Compound 360, 2-(1H-indazol-4-yl)-7-methyl-6-(3-(methylsulfonyl)phenyl)-4-morpholinothieno[3,2-d]pyrimidine]
alpha/beta [1]: >10 | alpha/delta [2]: >10 | alpha/gamma [3]: >10

COc1ccc(NCc2cc3nc(-c4cccc5[nH]ncc45)nc(N4CCOCC4)c3s2)cn1 [Compound 368, N-((2-(1H-indazol-4-yl)-4-morpholinothieno[3,2-d]pyrimidin-6-yl)methyl)-6-methoxypyridin-3-amine]
alpha/beta [1]: <10 | alpha/delta [2]: <10 | alpha/gamma [3]: >10

CC(C)(NC(=O)c1ccccc1)c1cc2nc(-c3cccc4[nH]ncc34)nc(N3CCOCC3)c2s1 [Compound 388, N-(2-(2-(1H-indazol-4-yl)-4-morpholinothieno[3,2-d]pyrimidin-6-yl)propan-2-yl)benzamide]
alpha/beta [1]: >10 | alpha/delta [2]: <10 | alpha/gamma [3]: >10

CN(Cc1cc2nc(-c3cccc4[nH]ncc34)nc(N3CCOCC3)c2s1)C(=O)c1ccccc1 [Compound 390, N-((2-(1H-indazol-4-yl)-4-morpholinothieno[3,2-d]pyrimidin-6-yl)methyl)-N-methylbenzamide]
alpha/beta [1]: <10 | alpha/delta [2]: <10 | alpha/gamma [3]: <10
